pIC50: −log10 of the molar value.
Assays:
[1] = test system: human amelanotic melanoma cell line (LOX); test: Collagen degradation inhibition assay (fluorescent-labelled Type I collagen matrix seeded with tumor cells); format: cell-based; conditions: n=4, FIGS. 2-4; for pIC50: LOX cells on labelled Type I collagen film; for dosage at which collagen degradation activity by LOX cells was inhibited: dosages tested about 10^−6 to 10^3 μM
From the text: The assay for screening antimetastatic agents is comprised of a collagenous matrix comprising collagenous components including but not limited to Type I or Type VI collagen or denatured collagen such as gelatin to form a scaffold-matrix. The scaffold matrix is subsequently coated with blood-borne components such as fibronectin, laminin, and fibrin for inducing adherence of the tumor cells and thereafter, labeled with quench fluorescent dyes. During performance of the assay, tumor cells that are present, adhere, ingest and invade the labeled scaffold-matrix resulting in the release of highly fluorescent peptides. Generally, tumor cells include a specific cell structure typically comprised of tentacles or arms (i.e. invadopodia) which secrete specific digestive enzymes including seprase, dipeptidyl peptidase IV (DPPIV), membrane Type-1 matrix metalloproteinases, and the like, to breakdown the collagen matrix. The fluorescence becomes visible only in the presence of these specific digestive enzymes produced by the tumor cells and increases in proportion to the activity of the digestive enzymes, thus providing a qualitative/quantitative measure of the invasiveness of the tumor cells. Other labeling methods including, but not limited to the use of, biotin, color dyes, and radioactive probes may also be used. As described herein, the assay utilizes a thin coating of collagen labeled with a fluorescent dye probe to form a scaffold collagen matrix, and tumor cells. The scaffold collagen matrix simulates the extracellular environment that is attacked by tumor cells during metastasis. The tumor cells attack the matrix by secreting proteolytic enzymes that break the collagen into peptide fragments. The peptide fragments release the fluorescent dye probe, and fluorescent light is emitted. The observed light intensity of the fluorescence correlates proportionally with the collagen degradation activity of the tumor cells. The tumor cells used in the test samples were generated from a human amelanotic melanoma cell line (LOX). A solution of a Type I collagen was prepared at a concentration of about 3.56 mg/ml. The collagen solution was used to form a coating of a monolayer of Type I collagen on a 96-well microtiter plate. […] Fluorescence readings were made using a microtiter plate fluorescence reader set at 485 nm/538 nm (Ex/Em). […] The collagen degradation activity of the LOX cells was detected through the cleavage and release of fluorescent collagen peptides from the labeled collagen matrix film as described above. A positive fluorescence signal, ΔF indicates the presence of collagen degradation activity. […]

LOX cells = test: Apoptosis assay (Vybrant Apoptosis Assay Kit #4, YO-PRO); format: cell-based, human; conditions: overnight, n=4, FIGS. 9-11
Method: An apoptosis assay marketed as Vybrant Apoptosis Assay Kit #4 from Molecular Probes, Inc., was obtained for the test.
The LOX cell cultures were incubated overnight.
The apoptosis assay was performed four times (n=4) for each test compound.

Row | SMILES | pIC50 ([1]; Homo sapiens) | dosage at which collagen degradation activity by LOX cells was inhibited [1] | dosages giving a marked increase in the incidence of apoptosis (LOX cells) | pIC50 [1] | dosages causing LOX cells to enter apoptosis (LOX cells)
1 | CCCCCC(O)CC[C@@H]1C2Cc3cccc(OCC(=O)O)c3CC2C[C@H]1O (stereo partly drawn) [Compound V, reference compound] | 8.00 | about 2.5×10^−3 μM | over 100 μM |  | 
2 | CNC(=O)[C@H](Cc1ccccc1)NC(=O)[C@H](CC(C)C)[C@H](CSc1cccs1)C(=O)NO [MMP inhibitor, BATIMASTAT®, reference compound] |  | over 10^−4 μM |  | 9.70 | over 2 μM

— US20030108512A1, “Modified prostaglandin compounds and analogs thereof, compositions containing the same useful for the treatment of cancer” (priority 2001, published 2003)
